Experimental data: patent US20160319277A1, “METHODS OF IMPROVED PROTEIN PRODUCTION USING MIRNAs AND SIRNAs” (THE JOHNS HOPKINS UNIVERSITY, priority 2015, published 2016)
Where two headings read alike, the source gives them in different places.

Tested on: HEK-CMV-Luc2-Hygro cells
Test: High-throughput genome-wide siRNA screen and validation screen for luciferase expression
Assay type: cell-based, human
Conditions: for per_cell / VIA: Table 3; for per_cell: per cell luciferase yield relative to negative control; for VIA: viable cell density as % of negative control; for Luciferase activity (%) / Per cell luciferase yield (%) / Viable cell number (%): Table 6, polyamine pathway gene siRNAs
Summary of the method: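 HEK cells with CMV-driven luciferase were reverse-transfected with 0.8 pmol siRNA per well (3 per gene) via RNAiMax and grown 72 h at 37 °C. Duplicate wells read for luciferase (ONE-Glo) and viability (CellTiter-Glo). Values given as % of plate negative-control median with MAD-based z-scores; hits with ≥2 siRNAs at z>3 retested using 3 new siRNAs.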

[1] = Table 4, primary screen, 72 h, negative control = 100%

## 113 (GCAUCAGCUCACAACAAAATT; chemistry not given here; listed as Homo sapiens) [compound 113]
[1]
  Viable cell density (%): 35.915%
  per cell luciferase yield (%): 409.361%

## 119 (CUGCCGCAACAAUAAGAAATT; chemistry not given here; listed as Homo sapiens) [compound 119]
[1]
  Viable cell density (%): 82.950%
  per cell luciferase yield (%): 171.198%

## 87 (GGUGUAAUAAUGUCCUUUATT; chemistry not given here; listed as Homo sapiens) [compound 87]
Primary screen, 72 h
  per_cell: 188.1
  VIA: 79.39

## 89 (GGAUCACGCAGCUCAAGAUTT; chemistry not given here; listed as Homo sapiens) [compound 89]
Primary screen, 72 h
  per_cell: 161.6
  VIA: 91.54

## 198 (GCCUAGGAGUUAUCCUCUATT; chemistry not given here; listed as Homo sapiens) [compound 198]
[1]
  Viable cell density (%): 112.248%
  per cell luciferase yield (%): 137.554%

## 158 (CUUCGACAGUACUUCCGGATT; chemistry not given here; listed as Homo sapiens) [compound 158]
[1]
  Viable cell density (%): 104.020%
  per cell luciferase yield (%): 161.613%

## 208 (CUUUUAAUGUUAAACUACATT; chemistry not given here; listed as Homo sapiens) [compound 208]
[1]
  Viable cell density (%): 110.986%
  per cell luciferase yield (%): 133.601%

## 75 (GCUCAUCGACAUCAAAGUUTT; chemistry not given here; listed as Homo sapiens) [compound 75]
Primary screen, 72 h
  per_cell: 170.1
  VIA: 97.01

## 143 (GCAAAGAUAGCGAGAAAUATT; chemistry not given here; listed as Homo sapiens) [compound 143]
[1]
  Viable cell density (%): 75.599%
  per cell luciferase yield (%): 193.846%

## 220 (CCGGGAAAGUUUGACUGCATT; chemistry not given here; listed as Homo sapiens) [compound 220]
  Luciferase activity (%): 101.5%
  Per cell luciferase yield (%): 133.9%
  Viable cell number (%): 75.8%

## 46 (CUCUUAUGGUAACCAAUGATT; chemistry not given here; listed as Homo sapiens) [compound 46]
Primary screen, 72 h
  per_cell: 160.2
  VIA: 91.56

## 175 (CAUUGGUGUUGACAAUCCATT; chemistry not given here; listed as Homo sapiens) [compound 175]
[1]
  Viable cell density (%): 85.046%
  per cell luciferase yield (%): 189.850%

## 193 (GGGACACUGUCAACCUCUATT; chemistry not given here; listed as Homo sapiens) [compound 193]
[1]
  Viable cell density (%): 74.811%
  per cell luciferase yield (%): 205.132%

## 219 (CAGAUGGAUUAUUAGCUGATT; chemistry not given here; listed as Homo sapiens) [compound 219]
  Luciferase activity (%): 94.9%
  Per cell luciferase yield (%): 90.0%
  Viable cell number (%): 105.4%

## 42 (CAAGUCACCUGUUACCUCATT; chemistry not given here; listed as Homo sapiens) [compound 42]
Primary screen, 72 h
  per_cell: 171.8
  VIA: 88.96

## 112 (GUUUCAUCUGGGUUCGCUATT; chemistry not given here; listed as Homo sapiens) [compound 112]
[1]
  Viable cell density (%): 62.659%
  per cell luciferase yield (%): 233.649%

## 65 (GCCUAGGAGUUAUCCUCUATT; chemistry not given here; listed as Homo sapiens) [compound 65]
Primary screen, 72 h
  per_cell: 137.6
  VIA: 112.2

## 96 (ACACUCUUGUGGUCAAGAATT; chemistry not given here; listed as Homo sapiens) [compound 96]
[1]
  Viable cell density (%): 73.809%
  per cell luciferase yield (%): 227.741%

## 178 (AAAUGCAACCCAAAAAGUATT; chemistry not given here; listed as Homo sapiens) [compound 178]
[1]
  Viable cell density (%): 76.280%
  per cell luciferase yield (%): 200.322%

## 144 (GGAUCACGCAGCUCAAGAUTT; chemistry not given here; listed as Homo sapiens) [compound 144]
[1]
  Viable cell density (%): 91.538%
  per cell luciferase yield (%): 161.634%

## 166 (CCAAGUCCAAUGCACCUGUTT; chemistry not given here; listed as Homo sapiens) [compound 166]
[1]
  Viable cell density (%): 76.798%
  per cell luciferase yield (%): 186.195%

## 217 (ACAUCGUCCACUUCCAGUATT; chemistry not given here; listed as Homo sapiens) [compound 217]
  Luciferase activity (%): 97.4%
  Per cell luciferase yield (%): 101.1%
  Viable cell number (%): 96.3%

## 115 (AGAUACUGGUAUUGCUCGATT; chemistry not given here; listed as Homo sapiens) [compound 115]
[1]
  Viable cell density (%): 54.559%
  per cell luciferase yield (%): 388.072%

## 149 (CGACCAUCAUGGAAAACAUTT; chemistry not given here; listed as Homo sapiens) [compound 149]
[1]
  Viable cell density (%): 57.472%
  per cell luciferase yield (%): 294.800%

## 126 (GGUGCUCUCGGUUGCACAATT; chemistry not given here; listed as Homo sapiens) [compound 126]
[1]
  Viable cell density (%): 82.333%
  per cell luciferase yield (%): 187.362%

## 55 (CAACGGGACUAUUAUGAUATT; chemistry not given here; listed as Homo sapiens) [compound 55]
Primary screen, 72 h
  per_cell: 163.4
  VIA: 89.58

## 179 (GUACCUGCGGGAUUACUCATT; chemistry not given here; listed as Homo sapiens) [compound 179]
[1]
  Viable cell density (%): 90.987%
  per cell luciferase yield (%): 160.687%

## 123 (GGUGUAAUAAUGUCCUUUATT; chemistry not given here; listed as Homo sapiens) [compound 123]
[1]
  Viable cell density (%): 79.386%
  per cell luciferase yield (%): 188.094%

## 157 (GAACAGCUGGGAACCUUCATT; chemistry not given here; listed as Homo sapiens) [compound 157]
[1]
  Viable cell density (%): 60.645%
  per cell luciferase yield (%): 254.007%

## 80 (CAAUGAUUCUUACCCUCAATT; chemistry not given here; listed as Homo sapiens) [compound 80]
Primary screen, 72 h
  per_cell: 257.9
  VIA: 77.17

## 71 (GAUUACUUCUUGACUAUCATT; chemistry not given here; listed as Homo sapiens) [compound 71]
Primary screen, 72 h
  per_cell: 150.8
  VIA: 123.2

## 102 (AGAUCUUUGUCAAGGUGUATT; chemistry not given here; listed as Homo sapiens) [compound 102]
[1]
  Viable cell density (%): 96.256%
  per cell luciferase yield (%): 153.438%

## 74 (CUUCGACAGUACUUCCGGATT; chemistry not given here; listed as Homo sapiens) [compound 74]
Primary screen, 72 h
  per_cell: 161.6
  VIA: 104

## 92 (CCAGUUCGACCUGAACAAATT; chemistry not given here; listed as Homo sapiens) [compound 92]
Primary screen, 72 h
  per_cell: 176
  VIA: 85.75

## 191 (GCCCACUAUUCUCAGCUCATT; chemistry not given here; listed as Homo sapiens) [compound 191]
[1]
  Viable cell density (%): 66.121%
  per cell luciferase yield (%): 214.156%

## 121 (CAUUGGUUUUGAUGAGUAUTT; chemistry not given here; listed as Homo sapiens) [compound 121]
  Viable cell density (%): 64.385%
[1]
  per cell luciferase yield (%): 226.659%

## 216 (GGGAAUAGUCAGAGGGAUCTT; chemistry not given here; listed as Homo sapiens) [compound 216]
  Luciferase activity (%): 92.8%
  Per cell luciferase yield (%): 90.4%
  Viable cell number (%): 102.7%

## 163 (CCAGCGAUACAACUCCUAUTT; chemistry not given here; listed as Homo sapiens) [compound 163]
[1]
  Viable cell density (%): 83.636%
  per cell luciferase yield (%): 176.821%

## 61 (GGACGGAAGCGAAAAUCGATT; chemistry not given here; listed as Homo sapiens) [compound 61]
Primary screen, 72 h
  per_cell: 216.2
  VIA: 71.47

## 85 (CUGCCGCAACAAUAAGAAATT; chemistry not given here; listed as Homo sapiens) [compound 85]
Primary screen, 72 h
  per_cell: 171.2
  VIA: 82.95

## 110 (CAAUGAUUCUUACCCUCAATT; chemistry not given here; listed as Homo sapiens) [compound 110]
[1]
  Viable cell density (%): 77.169%
  per cell luciferase yield (%): 257.929%
